Results reported in patent US12501899B2, “Mite infestation treatment” (priority 2019, dated 2025).
Structures can show the parent of a compound that is named as a salt. Where two headings read alike, the source gives them in different places.

Columns and labels:
[1] = test system: Ixodes ricinus; experiment: Oral acaricidal test on ticks in membrane feeding wells with treated blood; type: in vivo; details: for mortality at 1 ppm / mortality at 10 ppm / mortality at 100 ppm: Ixodes ricinus, po
Protocol: A laboratory study was conducted to determine the oral acaricidal properties of three compounds according to the invention (SN0305, SN0306 and SN0307) against Ixodes ricinus. Each compound was tested at 1, 10 and 100 ppm, and compared to a negative control corresponding to solvent alone (0.1% DMSO). Amitraz at 100 ppm was used as a positive control.
The Ixodes ricinus ticks (nymphs and adults) were placed for 24 hours on a membrane in feeding wells containing blood mixed with the tested compounds. Tick mortality (number of dead, moribund, or unaffected ticks in each well), attachment to the membrane (number of ticks attached/detached in each well), and the behavior (presence or absence of twitches) were examined 1, 3, 6, 12, 24, 48, 72, and 96 hours after the onset of tick exposure to the compounds.
Ticks (Ixodes ricinus) were collected. Collected adult females were kept separate from the nymphs and both were placed in sterile tubes in a humidity chamber to provide ˜80% humidity and 17° C. Only healthy ticks (females/nymphs) were chosen for the experiment.
Batches of 12 adults or nymphs were inserted into the feeding wells. After about 24 hours, their attachment was examined with a brush.
The efficiency of three compounds (SN0305, SN0306 and SN0307), each tested at three concentrations (1, 10, 100 ppm), was compared to the solvent control (0.1% DMSO, Sigma-Aldrich D-5879; Lot 101K0028) and to the positive control (Amitraze at 100 ppm).
Silicone-coated membranes with a thickness comprised between 110 and 140 μm were used for the construction of the feeding units.
Feeding units (sterilized acrylic glass tubes) were placed in feeding wells made of sterilized six-well plates.
3.1 ml of sterile 10^−3 M ATP-enriched blood was applied to each feeding well. Feeding wells were then inserted into a heated water bath (FIG. 12) and maintained at 37° C.±2° C.
Stock solutions of 100,000 ppm were prepared and tenth dilutions were carried out in 0.1% DMSO to reach the desired concentrations. After tick attachment (24 hours after placing the ticks in the feeding wells), 3.1 μl of the solutions were added to each feeding well containing 3.1 ml of blood. Blood was changed after 12 hours with fresh supplementation of the compounds to be tested. The ticks were exposed to the product for a total of 24 hours, after which the blood was again changed to fresh, untreated blood.
Tick mortality (number of dead, moribund or unaffected ticks in each well), attachment (number of attached/detached ticks in each well) and behavior (presence, absence and intensity of convulsions) were examined 1, 3, 6, 12, 24, 48, 72, and 96 hours after the start of tick exposure to the compound.

[2] = test system: Rhipicephalus sanguineus; experiment: Topical acaricidal test on brown dog ticks; type: in vivo; details: 168 h, 0.5 μl per tick, after 7 days of treatment
Protocol: Brown dog ticks, Rhipicephalus sanguineus, of 2nd stage, from a single cohort were used.
Three (3) compounds were tested, as well as a reference compound (Amitraze). For each compound tested and Amitraz, four doses (1000, 100, 10 and 1 ppm) were applied to the ticks topically. A negative control (acetone) and an untreated group were included for comparison. The experiments were carried out in triplicate.
Ten ticks were placed in a clear plastic container, measuring approximately 120 mm in diameter and 45 mm in height. The ticks were then anesthetized by direct exposure (for 10 seconds) to carbon dioxide. The treatments were then applied to the back (scutum) of each tick, using a Hamilton syringe, up to 0.5 μl of treatment per tick (1 application).
Cotton soaked in water was placed in each container to provide humidity throughout the experiment. The container was also vented throughout the experiment with a tube to introduce air into each container. The containers were maintained at a temperature of 23±3° C. Live, shocked and dead tick counts were taken daily after treatment for 7 days.
The averages in percentage of each evaluation category (healthy, knocked down and dead) were calculated, as well as the standard error. An analysis of variance (ANOVA) was performed using Minitab software, 16th edition.

[3] = adult ticks, 1 h, read-out: average percentage of adult tick mortality (moribund or dead adult ticks)
[4] = adult ticks, 3 h, read-out: average percentage of adult tick mortality (moribund or dead adult ticks)
[5] = adult ticks, 6 h, read-out: average percentage of adult tick mortality (moribund or dead adult ticks)
[6] = adult ticks, 12 h, read-out: average percentage of adult tick mortality (moribund or dead adult ticks)
[7] = adult ticks, 24 h, read-out: average percentage of adult tick mortality (moribund or dead adult ticks)
[8] = adult ticks, 48 h, read-out: average percentage of adult tick mortality (moribund or dead adult ticks)
[9] = adult ticks, 72 h, read-out: average percentage of adult tick mortality (moribund or dead adult ticks)
[10] = adult ticks, 96 h, read-out: average percentage of adult tick mortality (moribund or dead adult ticks)
[11] = nymphs, 1 h, read-out: average percentage of mortality of tick nymphs (moribund or dead nymphs)
[12] = nymphs, 3 h, read-out: average percentage of mortality of tick nymphs (moribund or dead nymphs)
[13] = nymphs, 6 h, read-out: average percentage of mortality of tick nymphs (moribund or dead nymphs)
[14] = nymphs, 12 h, read-out: average percentage of mortality of tick nymphs (moribund or dead nymphs)
[15] = nymphs, 24 h, read-out: average percentage of mortality of tick nymphs (moribund or dead nymphs)
[16] = nymphs, 48 h, read-out: average percentage of mortality of tick nymphs (moribund or dead nymphs)
[17] = nymphs, 72 h, read-out: average percentage of mortality of tick nymphs (moribund or dead nymphs)
[18] = nymphs, 96 h, read-out: average percentage of mortality of tick nymphs (moribund or dead nymphs)

## Cc1cccc(C(C)c2cnc[nH]2)c1C (racemic) [Medetomidine hydrochloride]
[1]; 1, 10, 100 ppm, nymphs and adults
  effect in terms of tick detachment (in words): very limited effect
[1]; [3]
  mortality at 1 ppm: 0%
  mortality at 10 ppm: 0%
  mortality at 100 ppm: 0%
[1]; [4]
  mortality at 1 ppm: 0%
  mortality at 10 ppm: 0%
  mortality at 100 ppm: 0%
[1]; [5]
  mortality at 1 ppm: 2.3%
  mortality at 10 ppm: 9.6%
  mortality at 100 ppm: 12.5%
[1]; [6]
  mortality at 1 ppm: 7.3%
  mortality at 10 ppm: 9.6%
  mortality at 100 ppm: 18.1%
[1]; [7]
  mortality at 1 ppm: 47.6%
  mortality at 10 ppm: 53.9%
  mortality at 100 ppm: 53.1%
[1]; [8]
  mortality at 1 ppm: 97.7%
  mortality at 10 ppm: 91.2%
  mortality at 100 ppm: 84.7%
[1]; [9]
  mortality at 1 ppm: 100%
  mortality at 10 ppm: 100%
  mortality at 100 ppm: 93.8%
[1]; [10]
  mortality at 1 ppm: 100%
  mortality at 10 ppm: 100%
  mortality at 100 ppm: 100%
[1]; [11]
  mortality at 1 ppm: 0%
  mortality at 10 ppm: 0%
  mortality at 100 ppm: 0%
[1]; [12]
  mortality at 1 ppm: 0%
  mortality at 10 ppm: 10.4%
  mortality at 100 ppm: 9.1%
[1]; [13]
  mortality at 1 ppm: 19.5%
  mortality at 10 ppm: 38.4%
  mortality at 100 ppm: 38.5%
[1]; [14]
  mortality at 1 ppm: 38.9%
  mortality at 10 ppm: 58.5%
  mortality at 100 ppm: 69.2%
[1]; [15]
  mortality at 1 ppm: 61.8%
  mortality at 10 ppm: 78.7%
  mortality at 100 ppm: 94.4%
[1]; [16]
  mortality at 1 ppm: 93.9%
  mortality at 10 ppm: 85%
  mortality at 100 ppm: 100%
[1]; [17]
  mortality at 1 ppm: 100%
  mortality at 10 ppm: 95.8%
  mortality at 100 ppm: 100%
[1]; [18]
  mortality at 1 ppm: 100%
  mortality at 10 ppm: 100%
  mortality at 100 ppm: 100%
[1]; from 1 hour of exposure, regardless of the concentration tested (1, 10, 100 ppm)
  ticks affected (convulsion, morbidity or death of ticks): 100%
[2]; 1 ppm topical
  mortality at 1 ppm: 26.7%
[2]; 10 ppm topical
  mortality at 10 ppm: 66.7%
[2]; 100 ppm topical
  mortality at 100 ppm: 93.3%
[2]; 1000 ppm topical
  mortality at 1000 ppm: 100%
